Experimental data as given in PubChem BioAssay AID1745844 (Carcinogenic Potency Database (CPDB), 2022).
Calls of active or inactive are those of the source. How the calls were made is not given here.

System: rodent lifetime carcinogenesis bioassay, tumor incidence TD50
Test: chronic cancer bioassays in animals – CPDB, compiled studies (AID 1745844)
Conditions: in feed

ClC1=C(Cl)[C@]2(Cl)[C@H]3[C@H]([C@@H]4C=C[C@H]3C4)[C@@]1(Cl)C2(Cl)Cl
carcinogen call (mouse, strain B6C3F1, females, site: any site (literature study), lesion: several types, types named in the paper, dosed 80 weeks, study length 90 weeks): negative (inactive)
TD50 (mouse, strain B6C3F1, females, site: lung, lesion: alveolar/bronchiolar adenoma + alveolar/bronchiolar carcinoma, dosed 80 weeks, study length 90 weeks): 9.02 mg/kg/day
TD50 (mouse, strain B6C3F1, males, site: any site (literature study), lesion: several types, types named in the paper, dosed 80 weeks, study length 90 weeks): 1.01 mg/kg/day
TD50 (mouse, strain B6C3F1, males, site: liver, lesion: hepatocellular adenoma + hepatocellular carcinoma + neoplastic nodule, dosed 80 weeks, study length 90 weeks): 0.741 mg/kg/day
TD50 (mouse, strain B6C3F1, males, site: liver, lesion: hepatocellular carcinoma, dosed 80 weeks, study length 89 weeks): 0.861 mg/kg/day
TD50 (mouse, strain B6C3F1, males, site: liver, lesion: hepatocellular carcinoma, dosed 80 weeks, study length 90 weeks): 0.741 mg/kg/day
TD50 (mouse, strain B6C3F1, males, site: lung, lesion: alveolar/bronchiolar adenoma + alveolar/bronchiolar carcinoma, dosed 80 weeks, study length 90 weeks): 3.2 mg/kg/day
TD50 (mouse, strain C3HeB/Fe, both sexes, site: any site (literature study), lesion: benign tumor, dosed 104 weeks, study length 104 weeks): 4.25 mg/kg/day
TD50 (mouse, strain C3HeB/Fe, both sexes, site: liver, lesion: hepatocellular adenoma, dosed 104 weeks, study length 104 weeks): 4.41 mg/kg/day
TD50 (mouse, strain C3HeB/Fe, both sexes, site: liver, lesion: hepatoma, dosed 104 weeks, study length 104 weeks): 3.45 mg/kg/day
TD50 (mouse, strain C3HeB/Fe, both sexes, site: lung, lesion: carcinoma, dosed 104 weeks, study length 104 weeks): 129 mg/kg/day
carcinogen call (rat, strain Not specified, females, site: any site (literature study), lesion: one or several types, types not named, dosed 104 weeks, study length 104 weeks): negative (inactive)
carcinogen call (rat, strain Not specified, males, site: any site (literature study), lesion: one or several types, types not named, dosed 104 weeks, study length 104 weeks): negative (inactive)
carcinogen call (rat, strain Osborne-Mendel, both sexes, site: any site (literature study), lesion: several types, types named in the paper, dosed 104 weeks, study length 104 weeks): positive
TD50 (rat, strain Osborne-Mendel, both sexes, site: lung, lesion: lymphosarcoma, dosed 104 weeks, study length 104 weeks): 42.3 mg/kg/day
TD50 (rat, strain Osborne-Mendel, females, site: adrenal gland, lesion: cortical adenoma, dosed 80 weeks, study length 109 weeks): 3.12 mg/kg/day (inactive)
TD50 (rat, strain Osborne-Mendel, females, site: any site (literature study), lesion: one or several types, types not named, dosed 104 weeks, study length 104 weeks): 1.69 mg/kg/day
carcinogen call (rat, strain Osborne-Mendel, females, site: any site (literature study), lesion: several types, types named in the paper, dosed 80 weeks, study length 111 weeks): negative (inactive)
carcinogen call (rat, strain Osborne-Mendel, females, site: any site (literature study), lesion: several types, types named in the paper, dosed 108 weeks, study length 108 weeks): negative (inactive)
carcinogen call (rat, strain Osborne-Mendel, females, site: any site (literature study), lesion: several types, types named in the paper, dosed 111 weeks, study length 117 weeks): negative (inactive)
TD50 (rat, strain Osborne-Mendel, females, site: liver, lesion: hepatocellular adenoma + hepatocellular carcinoma + neoplastic nodule, dosed 80 weeks, study length 111 weeks): 466 mg/kg/day
carcinogen call (rat, strain Osborne-Mendel, females, site: liver, lesion: one or several types, types not named, dosed 104 weeks, study length 104 weeks): negative (inactive)
carcinogen call (rat, strain Osborne-Mendel, females, site: liver, lesion: one or several types, types not named, dosed 108 weeks, study length 108 weeks): negative (inactive)
carcinogen call (rat, strain Osborne-Mendel, females, site: liver, lesion: one or several types, types not named, dosed 111 weeks, study length 117 weeks): negative (inactive)
TD50 (rat, strain Osborne-Mendel, females, site: lymphoreticular system, lesion: one or several types, types not named, dosed 104 weeks, study length 104 weeks): 4.35 mg/kg/day (inactive)
TD50 (rat, strain Osborne-Mendel, males, site: any site (literature study), lesion: several types, types named in the paper, dosed 74 weeks, study length 111 weeks): 16.4 mg/kg/day (inactive)
TD50 (rat, strain Osborne-Mendel, males, site: any site (literature study), lesion: several types, types named in the paper, dosed 108 weeks, study length 108 weeks): 4.21 mg/kg/day (inactive)
carcinogen call (rat, strain Osborne-Mendel, males, site: any site (literature study), lesion: several types, types named in the paper, dosed 124 weeks, study length 134 weeks): negative (inactive)
carcinogen call (rat, strain Osborne-Mendel, males, site: liver, lesion: hemangioma, dosed 124 weeks, study length 134 weeks): negative (inactive)
carcinogen call (rat, strain Osborne-Mendel, males, site: liver, lesion: one or several types, types not named, dosed 108 weeks, study length 108 weeks): negative (inactive)
carcinogen call (rat, strain Sprague-Dawley, females, site: liver, lesion: one or several types, types not named, dosed 104 weeks, study length 104 weeks): negative (inactive)
